The values below come from patent publication US11311508B2, “Medicinal composition for preventing or treating secondary hyperparathyroidism under maintenance dialysis” (EA Pharma Co., Ltd., priority 2017, dated 2022).

In series [1] the test system is bilaterally nephrectomized rats. Nature of the series: Survival of bilaterally nephrectomized rats after single doses. It counts as in vivo, rat. The conditions noted are these: five rats per group. From the text:
After quarantine and acclimatization periods of 6 days, fifty-one 7-week-old rats (Crl: CD (SD), male) were fed a 100% sucrose diet ad libitum from four days before the surgery. On the day of the surgery, skin incisions were made on the back at the sites of the right and left kidneys under isoflurane anesthesia and the renal capsules were removed to ligate the renal arteries and veins and the ureters using threads before removing the right and left kidneys. A penicillin solution was given upon suturing, and 5 mL of physiological saline was intraperitoneally administered before returning the rats into the breeding cages.
On a day after the bilaterally nephrectomy, the given doses were calculated based on the weight of the selected animals on that day. Group 1 was given a medium (physiological saline), Groups 2, 3 and 4 were given the Compound A1 solution (0.3, 3 and 30 mg/mL, respectively), and Groups 5, 6, 7 and 8 (5 rats per group) were given the comparative compound (0.3, 1, 3 and 10 mg/mL, respectively), each given a single dose of 1 ml/kg from the tail vein. Prior to the administration (0 hour), and 24 and 48 hours after the administration, approximately 300 μL of blood was collected without anesthesia from the tail vein using capillary tubes for obtaining the serum. The blood for obtaining the serum was left to stand at room temperature, and centrifuged in a high speed refrigerated microcentrifuge (10000 rpm, 5 min, 4° C.) within a period of 30 minutes to 2 hours after the blood collection to collect the serum.
The number of rats in each group was five prior to the administration.

For series [2], the system named is SHPT patients on maintenance hemodialysis. Kind of series: Phase I/II clinical trial, single intravenous administration. It is filed as in vivo, human. The protocol:
(§1) Targeting SHPT patients on maintenance hemodialysis, pharmacokinetics, pharmacodynamics and safety upon single or repeated intravenous administration of Compound A1 were examined by conducting a double-blind test using a placebo as a control.
(§2) Single administration: Based on the clinically effective dose calculated in Example 5, the doses were given at 0.025 mg, 0.05 mg, 0.1 mg, 0.2 mg, 0.4 mg, 0.6 mg and 0.8 mg (7 steps). On the day of trial drug administration, the trial drug was intravenously administered as slow as possible within 60 seconds 2 to 4 hours following the end of dialysis. Here, the trial drug was administered by diluting a required dose taken from the Compound A1 vial formulation prepared as follows with sterilized water for injection, and filling a syringe with the resultant in accordance with the dose to be administered.
(§3) Each item was evaluated according to the predetermined evaluation schedule.
(§4) A vial formulation encapsulating 1 mg of Compound A1 in terms of a dehydrate, and sodium chloride, disodium hydrogen phosphate dodecahydrate and sodium dihydrogen phosphate dihydrate as additives in 10 ml of sterilized water for injection

Assay in series [3]: as above
It is filed as in vivo, human. The conditions noted are these: human, plasma, iv; single i.v. 0.025-0.8 mg; read-out: t½. On the procedure:
as §1, §2, §3, §4

A short description of series [4]: Emetogenicity in dogs (crossover, intravenous bolus). The conditions noted are these: male, beagle, dog, in vivo, 1 mg/kg (no vomiting case). The protocol: A crossover trial was conducted with male beagles (Nosan Beagle, 14-87-month-old, weight: 10.2 kg-15.8 kg). The Compound A1 solutions used in Example 2 were given at 0.3, 1 and 10 mg/kg by bolus administration (0.5 mL/kg, 1 mL/sec) to 3-6 dogs per dose to confirm the manifestation of vomiting immediately after the administration. Administration was conducted once or twice a week with a 2-day interval. Administration was conducted prior to feeding. Symptoms prior to, immediately after, and 15 and 30 minutes after the administration were observed.

Series [5] concerns SHPT patients on maintenance hemodialysis. Kind of series: Phase I/II clinical trial, repeated intravenous administration. It counts as in vivo, human. The protocol: as §1
Repeated administration: Based on the clinically effective dose calculated in Example 5, the doses were given in 3 steps, namely, 0.05 mg, 0.1 mg and 0.2 mg. The trial drug was (intravenously) infused from the venous side of the dialysis circuit before the end of dialysis three times a week for 22 days (total of 9 times) starting from the first day of administration of the trial drug. Here, the trial drug was administered by diluting a required dose taken from the Compound A1 vial formulation prepared as follows with sterilized water for injection, and filling a syringe with the resultant in accordance with the dose to be administered.
as §3, §4

Series [6] relates to patients with renal failure. Nature of the series: Estimation of EC50, PK and clinically effective dose in patients with renal failure. The conditions noted are these: scaling factor applied to healthy adult EC50. Details: species or system human. From the text: (§5) EC50 value in patient with renal failure was estimated based on the calculated EC50 value in healthy adults and the results from the same analysis in normal rats and adenine-treated rat models (pathological rat models). […] Since the difference in the EC50 value between rats in normal state and pathological state is presumed to be caused by the changes in PK that are considered to greatly vary between normal state and pathological state, similar tendency is expected in human as well.
The result from PK fitting, and the contribution rate of renal elimination of the drug (3.2%) calculated using PK-sim (registered trademark) were used to simulate PK prediction in the patients with renal failure. […] As a result, administration of a dose of 0.06 mg/man was estimated to maintain a concentration higher than 1.4 ng/ml for 72 hours (FIG. 8).

The test system of series [7] is adenine-treated rat models. Nature of the series: PK/PD analysis (EC50) in adenine-treated rat models. It is filed as in vivo. The following applies: adenine-treated rat models (pathological rat models), same PK/PD analysis.
Description: as §5

The test system of series [8] is healthy Japanese male adults. Nature of the series: Phase I clinical trial (P1), single intravenous dose. It counts as in vivo, human. The protocol:
Thirty-two healthy Japanese male adults were given a single intravenous dose of the test drug (Compound A1) at 0.01 mg, 0.1 mg, 1.0 mg or 2.5 mg in a fasted state to study the pharmacokinetics, pharmacodynamics and safety by a double-blind test using a placebo as a control. Here, the trial drug was administered by diluting a required dose taken from the Compound A1 vial formulation prepared as follows with sterilized water for injection, and filling a syringe with the resultant in accordance with the dose to be administered.
A vial formulation encapsulating 100 mg of Compound A1 in terms of a dehydrate, and sodium chloride, disodium hydrogen phosphate dodecahydrate and sodium dihydrogen phosphate dihydrate as additives in 10 ml of sterilized water for injection

The nature of series [9]: in vivo. The following applies: Crl:CD(SD), rat, iv, 30 mg/kg. On the procedure: The mean±standard error of the serum iPTH concentrations of all individuals prior to the administration (0 hour) was 231±16 pg/ml.
Logistic curve fitting was conducted to establish the response relationship between the serum iPTH concentration 48 hours after the administration and the given dose.

For series [10], the system named is healthy adults. Kind of series: PK/PD analysis of P1 (three-compartment model, indirect response model incorporating rebound). It is filed as in vivo, human. The following applies: Homo sapiens; iPTH decrease, healthy adults, indirect response model incorporating rebound; ± standard error. The protocol: (§6) A PK/PD analysis was conducted to estimate the clinically effective dose based on the results from P1. The dose of 2.5 mg seemed to be excessive and thus was eliminated from the analysis. PK (mean plasma concentration) and PD (mean iPTH level normalized by the levels of the placebo group and the 0-hour level) data of the doses of 0.01 mg, 0.1 mg and 1 mg were used. An indirect response model incorporating rebound was used for the PK/PD analysis.
(§7) Based on the results of PK of the three given doses (0.01 mg, 0.1 mg and 1 mg) in P1, the three given doses were simultaneously analyzed using a three-compartment model to calculate the PK parameters (FIG. 5 and Table 2).
(§8) Using the calculated PK parameters as an input function, PK/PD analysis was performed using an indirect response model incorporating rebound (FIG. 6) to calculate the EC50 value in healthy adults (FIG. 7 and Table 3).

Assay in series [11]: as above
It counts as in vivo, human. The following applies: male, human, plasma, intravenous. The protocol: as §6, §7, §8

Series [12] concerns normal rats. Nature of the series: PK/PD analysis (EC50) in normal rats. It is filed as in vivo. The conditions noted are these: Rattus norvegicus, same PK/PD analysis.
Description: as §5

The test system of series [13] is normal rat. Nature of the series: Non-clinical studies of excretion and elimination. It is filed as in vivo. From the text: Compound A1 is a CaSR activator used for intravenous administration.

For orientation: EC50 means the concentration needed to bring the measured effect to its halfway point. Broadly, the Vd is the apparent volume that relates the amount in the body to the concentration in plasma or blood. The low end stands for little distribution into tissue, the high end for wide distribution into tissue.

Structures are written as SMILES. Structures can show the parent of a compound that is named as a salt. Some results are limits rather than exact numbers.

Regarding `CC(=O)N[C@H](CSSC[C@H](N)C(=O)O)C(=O)N[C@H](C)C(=O)N[C@H](CCCNC(=N)N)C(=O)N[C@H](CCCNC(=N)N)C(=O)N[C@H](CCCNC(=N)N)C(=O)N[C@H](C)C(=O)N[C@H](CCCNC(=N)N)C(N)=O` [comparative compound, etelcalcetide (Ac-c(C) arrrar-NH2) TFA salt], the “survival 48 hours after the administration” value is reported as “four survived” in [1] (3 mg/kg group) and “one survived” in [1] (10 mg/kg group).
For `Cc1c(Cl)cc(S(=O)(=O)[O-])cc1NC(=O)NC[C@H](N)C(=O)O.[Na+]` [Compound A1, sodium 3-{[(2S)-2-amino-2-carboxyethyl]carbamoylamino}-5-chloro-4-methylbenzenesulfonate], the “lowering of plasma concentration immediately after dialysis vs just before the dialysis” value in series [2] (hemodialysis performed 66 hours after the administration) is on record as 75-81%. Also, in series [2] (single administration), the “nausea observed (non-severe and mild)” value was “in the 0.6 mg and higher dose groups”; the “vomiting observed (non-severe and mild)” value is “in the 0.4 mg and higher dose groups”. Moreover, the “duration of serum iPTH lowering effect after the administration” value in [2] (single administration, until just before the dialysis) is reported as “up to 66 hours”. In addition, the half-life in series [3] lay in the range of 65 to 122 h. For the same compound, the C0 in series [4] was 18.8 µM. Moreover, in [5], the accumulating property entry is listed as “has not no accumulating property” and the “trough concentration in plasma before the dialysis following the longest interval” value is listed as “generally constant”. Also, the “maintenance of serum iPTH lowering effect” value in series [5] (test period) is listed as “maintained its effect with repeated administration”. The “form present in the plasma” value in [5] (three times a week for 22 days) is “present mainly as an unchanged substance”. Further, the “EC50 value estimated in the patients with renal failure” value in series [6] is greater than 0.0014 µg/mL. Further, the midpoint of the response in [7], the EC50, lay at 0.0748 µg/mL. In addition, in series [1] (all administered groups (0.3, 3 and 30 mg/kg)), the “survival 48 hours after the administration” value is on record as “all five rats survived”. The elimination from plasma result in series [8] (single i.v. 0.01, 0.1, 1.0 and 2.5 mg) was “rapidly eliminated”. Moreover, in series [8] (single i.v. dose), the “safety (side effects)” value was “non-severe and mild side effects such as vomiting were observed in the 1.0 mg and higher dose groups”; the “serum iPTH concentration compared to before the administration” value is “decreased in the 0.01 mg and higher dose groups”. Besides, the “excretion into the urine” value in series [8] (with respect to the given dose) is listed as “excreted into the urine mostly as unchanged substances”. In series [9], the concentration at 48 h stood at 18800 ng/mL. This compound yielded an EC50 in series [10] of 0.000421 ± 0.000167 µg/mL. This compound displayed a Vd in series [11] (three-compartment model, doses 0.01, 0.1, 1 mg, ± standard error) of 0.0909 ± 0.0114 L/kg. This compound also gave a C0 in [11] (assumed effective dose 0.1 mg/man, from simultaneous fitting of all doses) of 0.0436 µM. The compound also showed an EC50 in [12] of less than 0.0229 µg/mL. Further, the “elimination from the plasma” value in [13] (intravenously administered to a normal rat) was “rapidly eliminated from the plasma”. For the same compound, in series [13] (non-clinical studies), the “main route of excretion” value is “renal excretion is the main route of excretion”.
